Where two headings read alike, the source gives them in different places.
Tests used:
tankyrase 1 (TNKS 1) = biological target: T1, tankyrase 1 (TNKS 1) (Homo sapiens, UniProt O95271); test: Tankyrase inhibitory activity test (ELISA, self-polyADP ribosylation), tankyrase 1; type: biochemical; conditions: self-polyADP ribosylation
T1 construct: 1,024-1,327aa; made in house; host or cells: cell-free protein synthesis system
Protocol: (§1) (Test Example 1) Tankyrase Inhibitory Activity Test
(§2) For each of the compounds obtained in Examples (the test target compounds), the tankyrase inhibitory activity (an inhibitory activity against tankyrase 1 (TNKS 1) and an inhibitory activity against tankyrase 2 (TNKS 2)) was evaluated by measuring the enzymatic activity of tankyrase 1 and the enzymatic activity of tankyrase 2 by the ELISA technique using self-polyADP ribosylation as an index. First, Flag-tag fusion tankyrase 1 (1,024-1,327aa, SAM+PARP) and tankyrase 2 (613-1, 116aa, ANK5+SAM+PARP) were each synthesized by a cell-free protein synthesis system and diluted with a Tris buffer (50 mM Tris-HCl (pH 8.0), 150 mM NaCl, 10% glycerol). Then, 50 μL of the diluted tankyrase 1 or tankyrase 2 was added to a plate on which the anti-FLAGM 2 monoclonal antibody was immobilized (Anti-FLAG high sensitivity M2 coated plate) (SIGMA Corporation), and was allowed to stand at 4° C. overnight. Thereafter, the plate was washed four times with a PBS buffer containing 0.1% Triton X-100 (PBST buffer).
(§3) Subsequently, the test target compound diluted with an assay buffer (50 mM Tris-HCl (pH 8.0), 4 mM MgCl2, 0.2 mM DTT) (using DMSO as a control) was added to each well of the plate and was allowed to stand at room temperature for 10 minutes. Thereafter, a biotin-labeled NAD solution (225 μM NAD, 25 μM 6-Biotin-17-NAD (Trevigen Inc.)) was added as a donor substrate and mixed with the resultant test target compound, and the reaction was allowed to proceed at 30° C. for 45 minutes. Instead of the biotin-labeled NAD solution, distilled water was added to blank wells. After the reaction, the plate was washed four times with the PBST buffer. Thereafter, HRP (horseradish peroxidase)-labeled streptavidin (Trevigen Inc.) diluted 1,000-fold with the PBS buffer was added to each well, and the reaction was allowed to proceed at room temperature for 20 minutes. After the plate was washed four times with the PBST buffer, a chemiluminescent substrate solution TACS-Sapphire (Trevigen Inc.) was added to each well and the reaction was allowed to proceed at room temperature for 20 minutes. Then, the chemiluminescence intensity was measured using a chemiluminescence measuring apparatus.
(§4) The residual enzyme activity in the presence of the test target compound was determined in accordance with the following formula. Based on the residual enzyme activity at multiple concentrations of the test target compound, an enzyme inhibition activity was calculated as a 50% inhibitory concentration (IC50 value) using data analysis software named Origin (LightStone Corp.).

tankyrase 2 (TNKS 2) = biological target: T2, tankyrase 2 (TNKS 2) (Homo sapiens, UniProt Q9H2K2); test: Tankyrase inhibitory activity test (ELISA, self-polyADP ribosylation), tankyrase 2; type: biochemical; conditions: self-polyADP ribosylation
T2 construct: 613-1, 116aa; made in house; host or cells: cell-free protein synthesis system
T2 sequence (Q9H2K2 613-1166): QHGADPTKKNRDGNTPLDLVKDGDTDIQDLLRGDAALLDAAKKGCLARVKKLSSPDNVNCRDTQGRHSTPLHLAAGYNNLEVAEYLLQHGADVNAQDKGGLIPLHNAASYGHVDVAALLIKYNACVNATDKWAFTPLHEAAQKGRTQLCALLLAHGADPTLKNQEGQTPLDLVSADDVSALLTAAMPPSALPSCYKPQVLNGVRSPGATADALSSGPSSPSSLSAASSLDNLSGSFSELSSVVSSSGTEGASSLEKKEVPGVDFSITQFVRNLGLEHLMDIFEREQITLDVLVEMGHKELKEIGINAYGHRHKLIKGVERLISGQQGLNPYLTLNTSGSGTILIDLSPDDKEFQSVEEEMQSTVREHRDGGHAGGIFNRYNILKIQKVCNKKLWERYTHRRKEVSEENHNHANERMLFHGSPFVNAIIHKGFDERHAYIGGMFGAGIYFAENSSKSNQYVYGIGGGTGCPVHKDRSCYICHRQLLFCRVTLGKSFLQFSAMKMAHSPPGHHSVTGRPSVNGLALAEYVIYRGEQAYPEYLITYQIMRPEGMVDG
Protocol: as §1, §2, §3, §4

[1] = system: human colorectal cancer cell line, COLO-320DM; test: Cell proliferation inhibitory activity test (Celltiter-Glo Luminescent Cell Viability Assay); type: cell-based; conditions: COLO-320DM cells, 96 hours
Protocol: (Test Example 2) Cell Proliferation Inhibitory Activity Test
The cell proliferation inhibitory activity of the compound obtained in each of Examples against human colorectal cancer cell line, COLO-320DM was evaluated by Celltiter-Glo Luminescent Cell Viability Assay (Promega Corporation, G7573). The COLO-320 DM cells were cultured in a RPMI-1640 medium (Wako Pure Chemical Industries, Ltd., 189-02025) containing 10% fetal bovine serum and 2 mM of glutamine. The cultured cells were washed with PBS and then detached with trypsin/EDTA to prepare a cell solution containing 3×10^4 cells/mL.
Next, the cell solution was seeded in a 96 well microplate (Thermo/Nunc, 136101) in an amount of 70 μL/well and was cultured overnight under conditions at 37° C. with 5% CO2. On the next day, 10 μL/well of a solution in which the test target compound (DMSO solution) was diluted with the cell culture medium (a final DMSO concentration of 1%) was added and the reaction was allowed to proceed under conditions at 37° C. with 5% CO2 for 96 hours (a 1% DMSO solution was used as a control). Subsequently, 80 μL/well of Celltiter-Glo Luminescent Cell Viability Assay reagent (Promega Corporation, G7573) was added, followed by agitation for 2 minutes with a shaker under shielding with aluminum foil. Thereafter, the resultant solution was allowed to stand for reaction at room temperature for 10 minutes.
After that, the luminescent signal was measured with a luminometer (Biotech, Synergy). The cell proliferation inhibitory activity was evaluated by obtaining a percentage of a cell proliferation volume of each compound-added group with respect to a cell proliferation volume (100%) of a control group in which no test target component solution was added, and calculating a value of compound concentration (GI50) required to reduce the remaining cell volume to 50% of the remaining cell volume of the control. […] The results are shown in Tables 120 to 123 together with the results of the tankyrase inhibition activity test.

[2] = tankyrase 1, ELISA, read-out: TNKS1 inhibitory activity (IC50 class)
[3] = tankyrase 2, ELISA, read-out: TNKS2 inhibitory activity (IC50 class)
[4] = read-out: COLO-320 DM cell proliferation inhibitory activity (GI50 class)
[5] = ELISA, class symbols, read-out: TNKS1 (inhibitory activity against tankyrase 1, IC50 value)
[6] = ELISA, class symbols, read-out: TNKS2 (inhibitory activity against tankyrase 2, IC50 value)
[7] = class symbols, read-out: COLO-320 DM (cell proliferation inhibitory activity, GI50 value)

T1 sequence (O95271 1024-1327): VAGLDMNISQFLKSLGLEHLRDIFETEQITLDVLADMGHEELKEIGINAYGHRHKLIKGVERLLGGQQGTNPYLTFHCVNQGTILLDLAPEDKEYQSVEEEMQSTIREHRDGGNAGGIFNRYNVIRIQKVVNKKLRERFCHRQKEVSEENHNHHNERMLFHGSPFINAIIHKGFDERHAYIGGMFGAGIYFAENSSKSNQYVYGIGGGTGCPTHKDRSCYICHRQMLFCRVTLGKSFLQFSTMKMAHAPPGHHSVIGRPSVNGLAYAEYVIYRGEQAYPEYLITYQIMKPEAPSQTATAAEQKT

SMILES	IC50 (tankyrase 1 (TNKS 1); [2]) [nM]	IC50 (tankyrase 2 (TNKS 2); [3]) [nM]	GI50 [1, 4] [nM]	IC50 (tankyrase 1 (TNKS 1); [5]) [nM]	IC50 (tankyrase 2 (TNKS 2); [6]) [nM]	GI50 [1, 7] [nM]
CN1CCN(CCOc2cc(F)c3c(c2)N(C)C(=O)C32CCN(c3nc4c(c(=O)[nH]3)CCCN4C)CC2)CC1 [Example 362, 4-fluoro-1-methyl-1′-(8-methyl-4-oxo-3,4,5,6,7,8-hexahydropy-rido[2,3-d]pyrimidin-2-yl)-6-[2-(4-methyl-piperazin-1-yl)ethoxy] spiro[indoline-3,4′-piperidin]-2-one]	< 20	< 20	100 to 600			
CN1C(=O)C2(CCN(c3nc4c(c(=O)[nH]3)CCCN4)CC2)c2c(Cl)ccc(OC3CCOC3)c21 (stereo not drawn) [Example 438, 4-chloro-1′-(4-oxo-3,4,5,6,7,8-hexahydro-pyrido[2,3-d]pyrimidin-2-yl)-1-methyl-7-(oxo-lan-3-yloxy)spiro [indole-3,4′-piperidine]-2-one]				< 20	< 20	600 to 1000
COc1ccc(F)c2c1N(CC(C)(C)O)CC21CCN(c2nc3c(c(=O)[nH]2)CCCN3)CC1 [Example 473, 2-(4-fluoro-1-(2-hydroxy-2-methylpropyl)-7-methoxyspiro[indoline-3,4′-piperidin]-1′-yl)-5,6,7,8-tetrahydropyeido[2,3-d]pyrimidin-4(3H)-one]				20 to 200	< 20	600 to 1000
COc1ccc(Cl)c2c1N(CC(C)(C)O)C(=O)C21CCN(c2nc3c(c(=O)[nH]2)CCCN3)CC1 [Example 448]				< 20	< 20	100 to 600
COCCN1C(=O)C2(CCN(c3nc4c(c(=O)[nH]3)CCCN4C)CC2)c2c(F)cc(OCC(=O)O)cc21 [Example 409]				< 20	< 20	600 to 1000
CN1CCCc2c1nc(N1CCC3(CC1)C(=O)N(CC(C)(C)O)c1cccc(F)c13)[nH]c2=O [Example 447, 4-fluoro-1′-(4-hy-droxy-8-methyl-6,7-dihydro-5H-py-rido[2,3-d]pyrimidin-2-yl)-1-(2-hydroxy-2-methylpro-pyl)spiro[indole-3,4′-piperidine]-2-one]				< 20	< 20	< 100
O=c1[nH]c(N2CCC3(CC2)CN(Cc2ncccn2)c2cc(F)cc(F)c23)nc2c1CCCC2 [Example 316, 2-[4,6-difluoro-1-(pyrimidin-2-yl-methyl)spiro-[indoline-3,4′-piperidine]-1′-yl]-5,6,7,8-tetrahydro-quinazoline-4(3H)-one]	< 20	< 20	100 to 600			
CN1CCCc2c1nc(N1CCC3(CC1)C(=O)N(CC(F)(F)F)c1cc(OCCO)cc(F)c13)[nH]c2=O [Example 399, 4-fluoro-6-(2-hydroxy-ethoxy)-1′-(8-methyl-4-oxo-3,4,5,6,7,8-hexahydro-pyrido [2,3-d]pyri-midin-2-yl)-1-(2,2,2-trifluoroethyl) spiro [indoline-3,4′-piperidin]-2(1H)-one]				< 20	< 20	100 to 600
CC(=O)N1CCN(c2cc(F)c3c(c2)N(C)C(=O)C32CCN(c3nc4c(c(=O)[nH]3)CCCN4C)CC2)CC1 [Example 403, 6-(4-acetylpiperazin-1-yl)-4-fluoro-1-methyl-1′-(8-methyl-4-oxo-3,4,5,6,7,8-hexahydropy-rido[2,3-d]pyrimidin-2-yl)-spiro [indoline-3,4′-piperidin]-2(1H)-one]				< 20	< 20	100 to 600
COCCN1C(=O)C2(CCN(c3nc4c(c(=O)[nH]3)CCCN4)CC2)c2c(F)cccc21 [Example 470, 4-fluoro-1′-(4-hydroxy-5,6,7,8-tetrahydroxypyrido[2,3-d]pyrimidin-2-yl)-1-(2-methoxyethyl)spiro[indole-3,4′-piperidin]-2-one]				< 20	< 20	100 to 600
COc1ccc(Cl)c2c1N(CC(C)(C)O)C(=O)C21CCN(c2nc3c(c(=O)[nH]2)CCCN3C)CC1 [Example 446, 4-chloro-1′-(4-hy-droxy-8-methyl-6,7-dihydro-5H-py-rido[2,3-d]pyrimi-din-2-yl)-1-(2-hy-droxy-2-methyl-propyl)-7-methoxy-spiro[indole-3,4′-piperidine]-2-one]				< 20	< 20	< 100
